# Like-named read-outs stand apart in the source and are kept apart here.
# How the values were obtained:
# [1] = test system: chronic non A non B hepatitis; test: Long term dosing in chronic non A non B hepatitis (In Vivo Utilization Example 6); set-up: species or system human patients; conditions: for Liver tissue improvement: Ballooning of cell: 4 patients; for Liver tissue improvement: Moderation of lobule: 8 patients; for Liver tissue improvement: Fatty degeneration: 9 patients; for Glisson's capsule improvement: Piecemeal necrosis: 13 patients; for Liver tissue improvement: Mobilization image of Kupfer cell: 16 patients; for Glisson's capsule improvement: Fibrosis / Glisson's capsule improvement: Round cell infiltration / Liver tissue improvement: Cobwebby necrosis / Liver tissue improvement: Degenerative necrosis in cell: 17 patients
# Description: A capsule containing the organogermanium compound was dosed to patients infected with chronic non A non B hepatitis over a long period of time to check safety and effectiveness of the organogermanium compound.
# (a) Number of patients for analyzation: 68 persons.
# Group A: 39 persons (dose; 30 mg/day/body), and
# Group B: 29 persons (dose; 60 mg/day/body).
# (b) Mean dosing period of time
# (c) Number of patients who continuously dose over 48 weeks
# [2] = test system: spleen cells (PFC), Sarcoma 180 cancered mice; test: Antibody production ability in cancered mouse (spleen cell PFC); format: in vivo, ICR male mice; conditions: oral for 5 days, depending on dosing amount; FIG. 9
# Description: 2×10^6 cells of a mouse tumor cell (Sarcoma 180) were implanted under the skin of a side part of ICR male mice to form a solid cancer. The organogermanium compound (Compound No. 1 in Table 1) dissolved in 4% cattle serum albumin solution was orally dosed to the cancered mice for 5 days, after 9 days had elapsed from the implantation, 2×10^8 corpuscles of SRBC were injected in a tail vein of the mice for sensitization. After 4 days from the sensitization, spleen cells were extracted to measure of PFC therein, which was used as an index of the antibody productivity.
# [3] = test system: spleen cells (PFC), SRBC sensitized mice; test: Antibody production ability in normal mouse (spleen cell PFC); format: in vivo, ICR mice; conditions: 0.1, 1.0 and 10 mg/kg oral
# Description: To each group of ICR mice (age, 5 weeks), 2×10^8 and 2 ×10^7 of sheep red blood corpuscles (SRBC), as an […], were venously injected for sensitization in a tail vein of the mice. Then, immediately, the organogermanium compound dissolved in 4% cattle serum albumin solution was orally dosed to the sensitized mice in an amount of 0.1, 1.0 and 10 mg/kg, respectively. After 4 days from the sensitization, spleen cells were extracted to measure the number of PFC therein, which was used as an index of the antibody productivity.
# BALB/C mouse lymphocytes = test: Antibody production in culture system of BALB/C mouse lymphocytes; format: cell-based, BALB/C male mice
# LD50 for beagle dog = conditions: in vivo
# [4] = test system: chronic non A non B hepatitis; format: in vivo, human patients; conditions: 60 mg/day, 12 weeks
# Excerpt: Utility or effectiveness of the organogermanium compound is checked in comparison with that of a placebo as a control. Interferons have widely been accepted as drugs for curing chronic hepatitis, but those are injectionally dosed. On the contrary, the organogermanium compound is orally dosed. In recent years, some oral medicines for curing liver diseases have been developed and the effectiveness thereof has been evaluated by using a placebo as its control. Therefore, the "placebo" is selected as the control for the evaluation of the organogermanium compound in question. (b) To patients with non A non B hepatitis: 60 mg/day/body. Experiment period of time was set for 16 weeks for the patients with chronic B hepatitis and for 12 weeks for the patients with non A and non B hepatitis.
# chronic B hepatitis = format: in vivo, human patients
# Description: Search on utility or effectiveness of the organogermanium compound on patients who are infected with chronic B hepatitis, or with non A non B hepatitis, and show "positive" to HBe antigen as well as a preferable amount of dose thereof.
# The amount of dose has been set as follows, by taking the results given in In Vivo Utilization Example 1 into consideration.
# (a) 30 mg/day/body showing most preferable data in effectiveness, and
# (b) 15 mg/day/body (half amount).
# Experimental period of time was set for 12 weeks.
# (a) Examination of liver functions (GOT, GPT, total bilirubin, LDH, y-GTP, and y-globulin), and
# (b) Examination with use of HBV marker (HBe-Ag).
# [5] = test system: chronic non A non B hepatitis; test: Chronic non A non B hepatitis, 30/60/90 mg/day, 12 weeks (Table 4B); format: in vivo, human patients
# Description: Search on effectiveness of the organogermanium compound to chronic B and non A non B hepatitises and preferable amount of dose thereof.
# Therefore, 30 mg, 60 mg and 90 mg/day/body were set. Experimental period of time was set for 12 weeks. […]
# [6] = 30 mg/day, patients of total 35
# [7] = 60 mg/day, patients of total 26
substance,measurement,setting,value
3-oxygermylpropionic acid [Compound No. 1],Ratio of improvement: Middle or more,[1]; 30 mg/day,11.4%
same,Ratio of improvement: Slight or more,[1]; 30 mg/day,26.9%
same,Getting worse (functions of liver),[1]; [6],3
same,Middle improved (functions of liver),[1]; [6],2
same,No change (functions of liver),[1]; [6],20
same,Remarkably improved (functions of liver),[1]; [6],2
same,Ratio of improvement: Middle or more,[1]; 60 mg/day,34.3%
same,Ratio of improvement: Slight or more,[1]; 60 mg/day,57.7%
same,Getting worse (functions of liver),[1]; [7],0
same,Middle improved (functions of liver),[1]; [7],4
same,No change (functions of liver),[1]; [7],11
same,Remarkably improved (functions of liver),[1]; [7],3
same,Liver tissue improvement: Evaluation,"[1]; ≥middle, 1/17",5.9%
same,Liver tissue improvement: Bridging necrosis,"[1]; ≥middle, 3 patients",0%
same,Liver tissue improvement: Ballooning of cell,[1]; ≥middle,0%
same,Liver tissue improvement: Moderation of lobule,[1]; ≥middle,0%
same,Liver tissue improvement: Fatty degeneration,[1]; ≥middle,0%
same,Glisson's capsule improvement: Piecemeal necrosis,[1]; ≥middle,0%
same,Liver tissue improvement: Mobilization image of Kupfer cell,[1]; ≥middle,6.3%
same,Glisson's capsule improvement: Fibrosis,[1]; ≥middle,0%
same,Glisson's capsule improvement: Round cell infiltration,[1]; ≥middle,0%
same,Liver tissue improvement: Cobwebby necrosis,[1]; ≥middle,5.9%
same,Liver tissue improvement: Degenerative necrosis in cell,[1]; ≥middle,5.9%
same,Liver tissue improvement: Ballooning of cell,[1]; ≥slight,0. %
same,Liver tissue improvement: Moderation of lobule,[1]; ≥slight,12.5%
same,Liver tissue improvement: Fatty degeneration,[1]; ≥slight,22.2%
same,Liver tissue improvement: Evaluation,"[1]; ≥slight, 10/17",58.8%
same,Glisson's capsule improvement: Piecemeal necrosis,[1]; ≥slight,38.5%
same,Liver tissue improvement: Mobilization image of Kupfer cell,[1]; ≥slight,50.0%
same,Glisson's capsule improvement: Fibrosis,[1]; ≥slight,5.9%
same,Glisson's capsule improvement: Round cell infiltration,[1]; ≥slight,17.6%
same,Liver tissue improvement: Cobwebby necrosis,[1]; ≥slight,52.9%
same,Liver tissue improvement: Degenerative necrosis in cell,[1]; ≥slight,52.9%
same,ability to produce antibodies (PFC),[2],the ability to produce antibodies recovers towards a normal level
same,spleen cell PFC,"[3]; SRBC 2×10^7, FIG. 8b",increase it
same,spleen cell PFC,"[3]; SRBC 2×10^8, FIG. 8a",tendancy to decrease spleen cell PFC
same,antibody producing function,"BALB/C mouse lymphocytes; 10 μg/ml, FIG. 10b",an acceleration of the function
same,antibody producing function,BALB/C mouse lymphocytes; 1 to 2 μg/ml,no change
same,15 mg/body as fraction of LD50 for beagle dog,LD50 for beagle dog,1/12000
same,A/G change,[4],.uparw. +
same,GOT change,[4],.dwnarw. ***
same,"GOT, test versus placebo",[4],** (S>P)
same,GPT change,[4],.dwnarw. ***
same,"GPT, test versus placebo",[4],** (S>P)
same,Serum albumin change,[4],.dwnarw. **
same,γ-GPT change,[4],.dwnarw. *
same,"γ-GPT, test versus placebo",[4],* (S>P)
same,Improvement (objective),[4]; placebo 10%,8%
same,Improvement (sec. judgement),[4]; placebo 26%,51%
same,Effectiveness (slight or more),[4]; placebo 29%,50%
same,Improvement (Jud. by Doc.),[4]; placebo 29%,56%
same,Improvement (general),[4]; placebo 32%,59%
same,Improvement (self),[4]; placebo 48%,50%
same,Effectiveness (slight or more),chronic B hepatitis; 15 mg/day,38%
same,General judgement: Improvement (slight or more),chronic B hepatitis; 15 mg/day,36%
same,Effectiveness (slight or more),chronic B hepatitis; 30 mg/day,60%
same,General judgement: Improvement (slight or more),chronic B hepatitis; 30 mg/day,62%
same,GOT change,"chronic B hepatitis; 30 mg/day, 12 weeks",.dwnarw. ***
same,GPT change,"chronic B hepatitis; 30 mg/day, 12 weeks",.dwnarw. ***
same,HBe-Ag (log conversion) change,"chronic B hepatitis; 30 mg/day, 12 weeks",.dwnarw. +
same,LDH change,"chronic B hepatitis; 30 mg/day, 12 weeks",.dwnarw. *
same,modification or decomposition in contact with water,control composition (water),a modification or decomposition occurs
same,lapsed time at which disturbance in the absorption spectrum was first observed,"control: water in lieu of serum albumin, 25° C",24 h
same,disturbance in the absorption spectrum,"control: water, after 60 hours",the disturbance was further increased
same,Effectiveness (slight or more),[5]; 30 mg/day,31%
same,General judgement: Improvement (slight or more),[5]; 30 mg/day,29%
same,Safety (quite),[5]; 30 mg/day,92%
same,Side effect,[5]; 30 mg/day,8.3%
same,Effectiveness (slight or more),[5]; 60 mg/day,44%
same,General judgement: Improvement (slight or more),[5]; 60 mg/day,45%
same,Safety (quite),[5]; 60 mg/day,91%
same,Side effect,[5]; 60 mg/day,8.8%
same,A 1-P change,"[5]; 60 mg/day, 12 weeks",.dwnarw. **
same,GOT change,"[5]; 60 mg/day, 12 weeks",.dwnarw. **
same,GPT change,"[5]; 60 mg/day, 12 weeks",.dwnarw. *
same,Effectiveness (slight or more),[5]; 90 mg/day,38%
same,General judgement: Improvement (slight or more),[5]; 90 mg/day,41%
same,Safety (quite),[5]; 90 mg/day,90%
same,Side effect,[5]; 90 mg/day,10.0%

# — US5340806A, “Composition containing organogermanium compound and immunity adjusting agent comprising the composition” (Sanwa Kagaku Kenkyusho Co., Ltd., priority 1984, dated 1994)
